Assay [1] deals with BHK. Put plainly: Activation of dog NCX1 expressed in BHK cells assessed as increase in Na+ free solution induced calcium level at 0.1 to 10 uM by fluo-4 AM dye based assay. The class given is cell-based. The following applies: Canis lupus familiaris, filed as activator, dose 0.1-10 µM.
The subject of assay [2] is BHK. Put plainly: Activation of dog NCX3 expressed in BHK cells assessed as increase in Na+ free solution induced calcium level at 0.1 to 10 uM by fluo-4 AM dye based assay. The class given is cell-based. Particulars: Canis lupus familiaris, filed as activator, dose 0.1-10 µM.
The test system of assay [3] is Cortical neurone. Kind of assay: Neuroprotective activity against rat primary cortical neurons assessed as reduction in cell injury under hypoxic condition by MTT assay. The format is functional, cell-based. The following applies: dose 10.0 µM. In general terms: Tetrazolium assays rely on reduction of a dye to a coloured formazan, in cell work by metabolically active cells.

Assay [4] deals with BHK. Put plainly: Activation of dog NCX1 expressed in BHK cells assessed as increase in Na+ free solution induced calcium level at 10 uM by fluo-2 AM dye based assay. The class given is cell-based. Particulars: Canis lupus familiaris, filed as activator.
Assay [5] relates to BHK. Kind of assay: Activation of dog NCX3 expressed in BHK cells assessed as increase in Na+ free solution induced calcium level at 10 uM by fluo-2 AM dye based assay. The format is cell-based. The following applies: Canis lupus familiaris, filed as activator.
For assay [6], the system named is BHK. Put plainly: Activation of dog NCX1 expressed in BHK cells assessed as forward NCX current at 10 uM at -120 mV holding potential by whole-cell patch clamp electrophysiology method. The class given is cell-based. Particulars: Canis lupus familiaris, filed as activator. Background: In patch-clamp work, channel activity is measured electrically.
In assay [7] the test system is BHK. Kind of assay: Activation of dog NCX1 expressed in BHK cells assessed as reverese NCX current at 10 uM at +60 mV holding potential by whole-cell patch clamp electrophysiology method. The class given is cell-based. Particulars: Canis lupus familiaris, filed as activator.
Assay [8] deals with BHK. Kind of assay: Activation of dog NCX3 expressed in BHK cells assessed as forward NCX current at 10 uM at -120 mV holding potential by whole-cell patch clamp electrophysiology method. The format is cell-based. Particulars: Canis lupus familiaris, filed as activator.
Assay [9] concerns BHK. Kind of assay: Activation of dog NCX3 expressed in BHK cells assessed as reverse NCX current at 10 uM at + 60 mV holding potential by whole-cell patch clamp electrophysiology method. The class given is cell-based. Particulars: Canis lupus familiaris, filed as activator.
For assay [10], the system named is BHK. Put plainly: Inhibition of dog NCX1 expressed in BHK cells assessed as decrease in Na+ free solution induced calcium level at 0.01 to 10 uM by Fluo-4 AM dye based assay. The format is cell-based. Particulars: Canis lupus familiaris, dose 0.01-10 µM.
Assay [11] has as its system BHK. Put plainly: Inhibition of dog NCX1 expressed in BHK cells assessed as decrease in Na+ free solution induced calcium level at 10 uM by Fluo-2 AM dye based assay. The class given is cell-based. Particulars: Canis lupus familiaris.
Assay [12] concerns Cortical neurone. Kind of assay: Neuroprotective activity against rat primary cortical neurons assessed as reduction in cell injury at 10 uM preincubated with compound followed by compound washout and OGD and RX exposure by MTT assay. The class given is functional, cell-based.
The nature of assay [13]: Inhibition of dog NCX1 expressed in BHK cells assessed as decrease in Na+ free solution induced calcium level by patch-clamp electrophysiology assay. The format is cell-based. The following applies: Canis lupus familiaris.
The test system of assay [14] is Cortical neurone. Kind of assay: Neuroprotective activity against rat primary cortical neurons assessed as reduction in cell injury under RX and chemical hypoxia condition by MTT assay. The format is functional, cell-based. Particulars: dose 10.0 µM.

As usually defined, the IC50 is the point on the concentration scale where inhibition reaches its midpoint.

Calls of active or inactive are those of the source. The rule behind the calls is not given here.

With `CC1CCCCN1C(=O)CN1C(=O)CN=C(c2ccccc2)c2cc([N+](=O)[O-])ccc21` (stereo not drawn), the result with BHK [1], in the assay with BHK [2], with BHK [4], with BHK [5], with BHK [6] and in the assay on BHK [7] was Active. The outcome with BHK [8] and with BHK [9] was Active. Moreover, in the assay on Cortical neurone [3], the outcome was inactive.
Turning to `O=C1CN=C(c2ccccc2)c2cc([N+](=O)[O-])ccc2N1CCN1CCCC1`, the inhibition entry in the assay on BHK [10] and with BHK [11] was “Active” in each case. Besides, in the assay with Cortical neurone [3], the outcome was inactive.
With `O=C1CN=C(c2ccccc2Cl)c2cc([N+](=O)[O-])ccc2N1CN1CCCC1`, the outcome in the assay on Cortical neurone [12], in the assay on BHK [1] and in the assay on BHK [4] was Active. In assay [13], the IC50 worked out at 10 µM. The Activity entry in the assay on Cortical neurone [3] and with Cortical neurone [14] was “Dose-Dependent Effect” in each case.

The values are drawn from ChEMBL document CHEMBL5036354, “New Insights into the Structure-Activity Relationship and Neuroprotective Profile of Benzodiazepinone Derivatives of Neurounina-1 as Modulators of the Na+/Ca2+ Exchanger Isoforms” (J Med Chem, 2021).
